Reference: US20050282743A1, “Molecular interactions in cells” (Arbor Vita Corporation, priority 2001, published 2005)
Values belong to the sequence of their own block, whether it stands above or below them. Ends that are not written are not given here. * marks the point of attachment. Biotin = O=C1N[C@H]2[C@H](CS[C@H]2CCCCC(=O)*)N1

What was measured:
[1] = tested on: PDZ-domain polypeptide (GST/PDZ fusion protein); assay: G assay (G0): biotinylated PL peptide 20 uM binding to immobilized GST/PDZ fusion protein; conditions: G Assay of Example 3
Procedure: “G Assay”—Detection of PDZ-Ligand Binding Using Immobilized PDZ-Domain Fusion Polypeptide
In other assays, a GST/PDZ fusion protein is immobilized on a surface (“G” assay). The binding of labeled PL peptide (e.g., as listed in TABLE 8) to this surface is then measured. Typically, the assay is carried out as follows:
(1) A PDZ-domain polypeptide is bound to a surface, e.g. a protein binding surface. In a preferred embodiment, a GST/PDZ fusion protein containing one or more PDZ domains is bound to a polystyrene 96-well plate. […] In some instances, the GST/PDZ fusion protein is bound via an anti-GST antibody that is coated onto the 96-well plate. Adequate binding to the plate can be achieved when: • a. […]
(3) The binding of the biotinylated peptide to the GST/PDZ fusion protein surface can be detected using a variety of methods and detectors known to one of skill in the art. […] The reaction of the HRP and its substrate is terminated by addition of 100 uL per well of 1M sulfuric acid, and the absorbance of each well of the plate is read at 450 nm.
(4) Specific binding of a PL peptide and a PDZ domain polypeptide is determined by comparing the signal from the well(s) in which the PL peptide and PDZ domain polypeptide are combined, with the background signal(s). […]

[2] = tested on: Antigen-specific mouse T cells, BR4.2; assay: T cell stimulation assay, MBPAc1-16 and antigen presenting cells, IFNγ ELISA (FIG. 1A); format: cell-based; conditions: 10 μM Tat-peptide; compared to Tat-peptide alone or no peptide
Procedure: Antigen-specific T cell activation was measured by cytokine production. Fusion peptides containing tat and a T cell surface molecule carboxyl terminus inhibited γ-interferon (IFN) production by a T cell line in response to myelin basic protein (MBP) stimulation. […]
Cell Cultures Cells were maintained and tested in RPMI 1640 media supplemented with 10% fetal calf serum (HyClone), 2 mM glutamine, 10 mM Hepes, 100 U/ml penicillin, 100 μg/ml streptomycin, 0.1 mM non-essential amino acids, 1 mM sodium pyruvate, and 50 μM beta mercaptoethanol.
Supernatants were assayed for cytokine production following activation of T cell lines. […]
IFNγ was measured from cell supernatants, described above, at ambient temperature using the Endogen, Inc. ELISA protocol 3. […] The presence of IFNγ was detected with a biotin-labeled anti-mouse IFNγ monoclonal antibody (MM700B, Endogen, Inc.,). […] The absorbance at 450 nm was measured using a microtiter plate reader (Thermo Max, Molecular Devices) and the concentration of unknown IFNγ from cell supernatants was calculated from a standard curve generated by Softmax Pro software (Molecular Devices).

[3] = target: T1, PDZ protein (GST-PDZ fusion) (Homo sapiens, UniProt O14907); assay: G' assay (10 uM PL peptide), results of TABLE 7 and TABLE 12; format: binding; conditions: PDZ TIP1, PDZ Domain 1
T1 construct: made in house; host or cells: E. coli (DH5alpha, BL21 or JM109)
T1 sequence (O14907 1-124): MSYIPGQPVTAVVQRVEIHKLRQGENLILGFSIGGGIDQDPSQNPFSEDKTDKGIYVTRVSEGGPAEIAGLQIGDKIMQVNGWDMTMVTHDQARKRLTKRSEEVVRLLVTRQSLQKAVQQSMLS
How it was run: (§1)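 Biotinylated PL peptides at 10 uM (vs 20 uM in G^0 assay) bound to GST-PDZ fusions; PDZ protein at 5 ug/ml unless another concentration listed. Bound peptide read as A450 nm, classified 0–5 (0 = A450 0; 5 = A450 >4 repeated).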

[4] = tested on: PDZ protein (GST-PDZ fusion); assay: as above; format: binding
How it was run: as §1

[5] = target: T2, PDZ protein (GST-PDZ fusion) (Homo sapiens, UniProt Q9Y2H9); assay: as above; format: binding; conditions: PDZ KIAA0973, PDZ Domain 1
T2 construct: made in house; host or cells: E. coli (DH5alpha, BL21 or JM109)
How it was run: as §1

[6] = target: T3, PDZ protein (GST-PDZ fusion) (Homo sapiens, UniProt Q02410); assay: as above; format: binding; conditions: PDZ Mint 1, PDZ Domain 2
T3 construct: made in house; host or cells: E. coli (DH5alpha, BL21 or JM109)
T3 sequence (Q02410 1-837): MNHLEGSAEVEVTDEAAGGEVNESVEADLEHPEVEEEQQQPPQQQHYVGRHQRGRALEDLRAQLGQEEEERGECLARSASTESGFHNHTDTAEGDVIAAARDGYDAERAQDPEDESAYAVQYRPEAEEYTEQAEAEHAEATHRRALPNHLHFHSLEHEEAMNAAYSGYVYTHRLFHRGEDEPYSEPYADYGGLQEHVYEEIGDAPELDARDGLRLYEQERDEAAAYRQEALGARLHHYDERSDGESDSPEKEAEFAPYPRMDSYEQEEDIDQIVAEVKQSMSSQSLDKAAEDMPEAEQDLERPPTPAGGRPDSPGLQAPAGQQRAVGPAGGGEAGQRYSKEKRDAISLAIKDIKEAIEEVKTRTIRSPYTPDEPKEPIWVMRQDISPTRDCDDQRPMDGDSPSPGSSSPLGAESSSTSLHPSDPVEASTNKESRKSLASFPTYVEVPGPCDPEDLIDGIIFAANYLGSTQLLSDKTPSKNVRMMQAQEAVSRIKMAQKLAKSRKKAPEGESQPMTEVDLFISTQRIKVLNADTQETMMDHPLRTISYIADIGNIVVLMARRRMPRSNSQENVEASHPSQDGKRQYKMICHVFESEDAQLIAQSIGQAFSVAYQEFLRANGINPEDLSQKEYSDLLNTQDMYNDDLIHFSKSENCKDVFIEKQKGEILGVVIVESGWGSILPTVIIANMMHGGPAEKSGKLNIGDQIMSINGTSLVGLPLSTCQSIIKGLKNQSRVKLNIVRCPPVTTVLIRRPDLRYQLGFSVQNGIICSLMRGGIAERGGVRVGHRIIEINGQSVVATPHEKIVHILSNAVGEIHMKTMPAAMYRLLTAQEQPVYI
How it was run: as §1

KIAA807 = target: T4, KIAA807 (Homo sapiens, UniProt Q6P0Q8); assay: G' assay, TABLE 12; format: binding; conditions: A450 nm class of biotinylated PL peptide bound; 0 in conc columns = peptide 10 uM, protein 5 ug/ml
T4 construct: made in house; host or cells: E. coli (DH5alpha, BL21 or JM109)
T4 sequence (Q6P0Q8 1104-1192 limits assumed): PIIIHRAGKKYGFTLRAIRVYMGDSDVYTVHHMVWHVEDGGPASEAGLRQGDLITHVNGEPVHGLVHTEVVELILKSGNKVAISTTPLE
Procedure: (§2) The third column labeled “Peptide Optimal Concentration” in the tables is a number reflective of the binding interaction between the PL protein and PDZ protein. […] The column labeled “Protein Optimal Concentration” refers to the protein concentration used to assay PL interaction (in ug/ml); a ‘0’ is indicative of 5 ug/ml protein concentration; any other value represents the concentration (in ug/ml) used to determine the dissociation constant for a given interaction.
(§3) Finally, the seventh column labeled “Classification” is another measure of the level of binding. In particular, it provides an absorbance value at 450 nm which indicates the amount of PL peptide bound to the PDZ protein. The following numerical values have the following meanings: ‘1’—A450 nm 0-1; ‘2’—A450 nm 1-2; ‘3’—A450 nm 2-3; ‘4’—A450 nm 3-4; ‘5’—A450 nm of 4 more than 2× repeated; ‘0’—A450 nm 0, i.e., not found to interact. Thus, higher numbers indicate stronger interactions.
(§4) For convenience, the assay conditions described in this section are referred to as the “G′ assay” and the “G″ assay,” with the specific conditions described in the preceding section on G assays being referred to as the “G^0 assay.” The “G′ assay” is identical to the “G^0 assay” except at step (2) the peptide concentration is 10 uM instead of 20 uM. […] Correspondingly, it slightly increases the certainty that detected interactions are of sufficient affinity and half-life to be of biological importance and useful therapeutic targets.

Mint 1 (PDZ Domain 1, 2) = target: T5, Mint 1 (PDZ Domain 1, 2) (Homo sapiens, UniProt Q02410); assay: G' assay, TABLE 12; format: binding; conditions: A450 nm class of biotinylated PL peptide bound; 0 in conc columns = peptide 10 uM, protein 5 ug/ml
T5 construct: When more than one PDZ domain was cloned, the DNA portion cloned represents the PDZ domains and the cDNA portion located between individual domains; made in house; host or cells: E. coli (DH5alpha, BL21 or JM109)
T5 sequence (Q02410 652-828 limits assumed): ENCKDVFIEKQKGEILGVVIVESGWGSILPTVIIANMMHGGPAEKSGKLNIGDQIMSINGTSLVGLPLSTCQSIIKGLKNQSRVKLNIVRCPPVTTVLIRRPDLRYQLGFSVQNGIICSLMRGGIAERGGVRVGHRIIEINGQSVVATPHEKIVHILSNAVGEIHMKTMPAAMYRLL
Procedure: as §2, §3, §4

[7] = target: T6, KIAA0807(S) (PDZ Domain 1) (Homo sapiens, UniProt Q6P0Q8); assay: G' assay and Kd titration, TABLE 12; format: binding; conditions: A450 nm class of biotinylated PL peptide bound; 0 in conc columns = peptide 10 uM, protein 5 ug/ml
T6 construct: made in house; host or cells: E. coli (DH5alpha, BL21 or JM109)
T6 sequence (Q6P0Q8 with tags, fused parts or gaps): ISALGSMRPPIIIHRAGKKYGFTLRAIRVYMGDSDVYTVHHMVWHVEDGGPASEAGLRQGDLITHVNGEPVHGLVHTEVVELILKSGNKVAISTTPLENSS
Procedure: as §2, §3
For convenience, the assay conditions described in this section are referred to as the “G′ assay” and the “G″ assay,” with the specific conditions described in the preceding section on G assays being referred to as the “G^0 assay.” The “G′ assay” is identical to the “G^0 assay” except at step (2) the peptide concentration is 10 uM instead of 20 uM.

T2 sequence (Q9Y2H9 whole entry, the tested form may be a part): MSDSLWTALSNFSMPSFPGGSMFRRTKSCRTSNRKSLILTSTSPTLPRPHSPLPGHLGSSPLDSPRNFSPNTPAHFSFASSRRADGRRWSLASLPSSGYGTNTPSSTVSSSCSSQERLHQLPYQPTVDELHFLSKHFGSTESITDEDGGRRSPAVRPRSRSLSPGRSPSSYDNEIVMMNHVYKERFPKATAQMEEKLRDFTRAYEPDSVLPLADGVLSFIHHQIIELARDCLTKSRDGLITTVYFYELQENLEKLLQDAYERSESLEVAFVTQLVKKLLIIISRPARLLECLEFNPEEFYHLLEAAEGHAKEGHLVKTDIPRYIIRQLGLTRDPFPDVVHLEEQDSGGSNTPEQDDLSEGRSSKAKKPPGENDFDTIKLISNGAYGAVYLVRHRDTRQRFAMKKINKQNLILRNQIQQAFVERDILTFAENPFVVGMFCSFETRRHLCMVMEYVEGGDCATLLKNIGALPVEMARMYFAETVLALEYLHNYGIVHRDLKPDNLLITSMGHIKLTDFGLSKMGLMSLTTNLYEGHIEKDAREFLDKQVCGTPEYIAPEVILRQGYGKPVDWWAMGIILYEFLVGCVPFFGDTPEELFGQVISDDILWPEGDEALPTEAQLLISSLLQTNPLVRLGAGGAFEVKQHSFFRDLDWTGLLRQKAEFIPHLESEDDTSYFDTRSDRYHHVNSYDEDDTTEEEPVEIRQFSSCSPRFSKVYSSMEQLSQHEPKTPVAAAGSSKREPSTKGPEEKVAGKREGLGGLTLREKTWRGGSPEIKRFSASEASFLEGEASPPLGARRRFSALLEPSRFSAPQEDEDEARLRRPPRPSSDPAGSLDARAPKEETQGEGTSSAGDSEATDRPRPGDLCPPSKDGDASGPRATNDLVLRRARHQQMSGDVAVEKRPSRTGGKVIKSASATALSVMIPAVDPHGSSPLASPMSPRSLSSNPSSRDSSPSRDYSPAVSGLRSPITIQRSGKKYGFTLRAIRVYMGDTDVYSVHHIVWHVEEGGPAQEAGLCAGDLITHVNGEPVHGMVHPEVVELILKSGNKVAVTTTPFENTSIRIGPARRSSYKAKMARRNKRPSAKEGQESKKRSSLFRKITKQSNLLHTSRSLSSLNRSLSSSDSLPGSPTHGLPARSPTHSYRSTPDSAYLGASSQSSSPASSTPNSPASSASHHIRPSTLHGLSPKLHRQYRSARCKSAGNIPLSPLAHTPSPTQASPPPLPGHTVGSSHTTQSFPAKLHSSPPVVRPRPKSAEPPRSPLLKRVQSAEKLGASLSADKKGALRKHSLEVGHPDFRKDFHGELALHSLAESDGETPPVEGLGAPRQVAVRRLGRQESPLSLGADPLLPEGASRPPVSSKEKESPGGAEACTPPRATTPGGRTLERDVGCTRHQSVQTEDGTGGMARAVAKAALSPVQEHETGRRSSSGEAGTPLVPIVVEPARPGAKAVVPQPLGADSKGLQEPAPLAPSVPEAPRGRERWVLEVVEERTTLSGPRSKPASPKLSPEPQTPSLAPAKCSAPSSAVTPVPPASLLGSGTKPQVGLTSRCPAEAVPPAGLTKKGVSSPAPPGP

Sequence: HAMNAAPRAMENAPALRTSH (Biotin-HAMNAAPRAMENAPALRTSH) [HPV E6 57]
- binding of E6 C-terminal peptides to a variety of PDZ domains [1]: did not bind any of the PDZ domains tested

Sequence: GYGRKKRRQRRRGPPSSSSGL [Tat-CD3 fusion peptide]
- T cell activation mediated by peptide:MHC (IFNγ production) [2]: inhibits T cell activation

Sequence: GGGRGSGLAGGSRGGGQSRQ [HPV E6 77]
- Classification [3]: 0 (A450 nm 0, i.e., not found to interact)
- Classification ([4]; PDZ BAI-1, PDZ Domain 2): 0 (A450 nm 0, i.e., not found to interact)
- binding of E6 C-terminal peptides to a variety of PDZ domains [1]: did not bind any of the PDZ domains tested

- Classification [5]: 2 (A450 nm 1-2)
- Classification [6]: 1 (A450 nm 0-1)
- Classification (KIAA807): 4 (A450 nm 3-4)
- Classification (Mint 1 (PDZ Domain 1, 2)): 1 (A450 nm 0-1)
- Classification [7]: 5 (A450 nm of 4 more than 2× repeated)
Sequence: KKGTYLTDETHREVKFTSL (Biotin-KKGTYLTDETHREVKFTSL) [CD46]
- Classification ([4]; PDZ BAI-1, PDZ Domain 5): 1 (A450 nm 0-1)
- PDZ proteins bound by the PL (TABLE 7) ([4]; as cited in the text from TABLE 7): KIAA0973, Mint 1, KIAA807, BAI-1, KIA0807(S)
